Assay results published in patent US20180371384A1, “METHOD FOR PRODUCING ROOTING-SUPPRESSED MALT” (SUNTORY HOLDINGS LIMITED, priority 2015, published 2018).

Columns and labels:
barley (Sukai Golden) = assay: Amount of rooting, yield and length of acrospires (Test Example 3); type: in vivo; details: for Amount of Rooting Based on 100 g of Barley: germination 5 days at 20° C.
Description: Here, the rooting amount used herein means total weight of a root thrusting out of the surface of each grain in malts which are malted from 100 g of raw material barley.
Crops of Sukai Golden harvested in the year 2013 (99% of germination ratio) were used as domestic (Japan) two-row malting barley cultivar. and steeping conditions were the same as those in Test Example 1. A standard in which steeping of barley was earned out in pure water (pH 7.0) was defined as “normal steeping bailey (Comparative Example 2),” and a standard in which steeping of barley was earned out in an aqueous solution having a pH listed in Table 3 with phosphoric acid was defined as “acidic steeping barley (Example 2),” and three batches of malts each of which was obtained by going through the steps of steeping, germination and kilning were prepared. For each of batches of the normal malts and the acidic steeping barley obtained, the weight of rooting was obtained, and an average length of acrospires and an yield were obtained in the same manner as Test Example 1 to calculate an average thereof. In addition, each of the contents of an acrid component and β-glucan was measured as follows, and the contents of enzymes were measured in the same manner as Test Example 2. […] In addition, the germination was carried out for 5 days while keeping a temperature at 20° C. In addition, an yield was calculated as X/100 (%) from X g of a weight of roots-removed malts obtained from 100 g of barley.

α-amylase = assay: Measurement of α-amylase level in malts; parameters: species or system barley
Experimental: (§1) One gram of malts which are previously cryo-milled with ShakeMaster manufactured by Medical Bio Science is suspended in 2 mL of a buffer suitable for the measurement of activities of various enzymes, extraction is carried out for 60 minutes in iced water, and the extracts are then subjected to ultracentrifugation treatment (1,000 g×20 minutes), to provide the supernatant as an enzyme solution.
A crop a amylase kit from BIOCON is used. A blocked p-nitrophenyl maltoheptaoside (BPNPG7) is used as a substrate, enzyme extracts from malts are added thereto, and the mixture is reacted at 40° C. for 20 minutes. The reaction is stopped with Trizma base, and p-nitrophenyl maltosaccharide produced is degraded with glucoamylase, α-glucosidase. P-nitrophenol produced is subjected to phenolate color development, and the absorbance is measured at 410 nm (n=5).

endoprotease = assay: Measurement of endoprotease level in malts; parameters: species or system barley
Experimental: One gram of […] previously cryo-milled with ShakeMaster manufactured by Medical Bio Science is suspended in 2 mL of a buffer suitable for the measurement of activities of various enzymes, extraction is carried out for 60 minutes in iced water, and the extracts are then subjected to ultracentrifugation treatment (1,000 g×20 minutes), to provide the supernatant as an enzyme solution. Azo-stained casein is used as a substrate, enzyme extracts from […] thereto, and the mixture is reacted at 40° C. for 30 minutes. The reaction is stopped with a TCA solution, the solution is allowed to stand for 5 minutes, the mixture is then subjected to centrifugation to precipitate an undegraded substrate, and the supernatant is subjected to colorimetry at 366 mn (n=5). Here, an enzyme activity is defined such that an enzyme concentration of an enzyme liquid which is added to an enzyme reaction liquid to increase the absorbance by 1.0 is 1 U/mL. […] A pH of the solution is then adjusted to 8.5 with a diluted sulfuric acid, and a volume is tilled up to 100 mL.

[1] = tested on: acrid component (hordatine glycoside); assay: Measurement of acrid components in malts (LCMS); parameters: species or system barley
Description: In addition, the content of the acrid component in the acidic steeping malts obtained is, for example, lowered in a case of a pH of from 1.8 to 2.0 of the acidic steeping water, and the content is preferably 90% by weight or less, more preferably 80% by weight or less, even more preferably 75% by weight or less, even more preferably 70% by weight or less, even more preferably 60% by weight or less, and even more preferably 55% by weight or less, when defining the content of the acrid component in normal malts as 100% by weight. Here, the acrid component as used herein refers to a hordatine glycoside, and the content can be measured in accordance with a method set forth in the following Examples.
The amount 5.0 g of malts which are previously cryo-milled with ShakeMaster manufactured by Medical Bio Science are suspended in 40 mL of hot water at 65° C., and extraction is carried out at 65° C. for 1 hour. Thereafter, the extracts are subjected to centrifugation at 5,000 rpm for 20 minutes, and 10 mL of the supernatant is applied to PLS-2 solid phase column of GL Science (activated with methanol or the like), the column is washed with water, and thereafter fractions eluted with 20% ethanol are collected. The eluents are concentrated with SpeedVac, a concentrate is then freeze-dried, the freeze-dried product is dissolved in water, and the solution is subjected to LCMS under the following conditions, to obtain area of peak thereof.
Apparatus; LCMS-2020 manufactured by Shimadzu Corporation
Column: Polar column (Develosil-C30-UG-5. φ2×150 mm)
Mobile phase: Gradient of water containing 0.1% formic acid/acetocetonitrile[sic] • 0 to 62.5 minutes (2→10% acetonitrile) • 62.5 to 72.5 minutes (10% acetonitrile)
Column temperature: 40° C.

β-amylase = assay: Measurement of β-amylase level in malts; parameters: species or system barley
Experimental: as §1, with “malts which are” left out, “solution. Enzyme extracts from […] to Betamyl (p-nitrophenyl maltotriose; […]” for “solution.”

O=P(O)(O)O [Phosphoric Acid, phosphoric acid]
Length of Acrospires (barley (Sukai Golden); Initial pH 1.5, 223 mM): 0.38 | Amount of Rooting Based on 100 g of Barley (barley (Sukai Golden); Initial pH 1.5, 223 mM): 0.03 g | Length of Acrospires (barley (Sukai Golden); Initial pH 1.6, 176 mM): 0.38 | Amount of Rooting Based on 100 g of Barley (barley (Sukai Golden); Initial pH 1.6, 176 mM): 0.03 g | Length of Acrospires (barley (Sukai Golden); Initial pH 1.8, 82 mM): 0.38 | Amount of Rooting Based on 100 g of Barley (barley (Sukai Golden); Initial pH 1.8, 82 mM): 0.05 g | Length of Acrospires (barley (Sukai Golden); Initial pH 2.0, 29 mM): 0.62 | Amount of Rooting Based on 100 g of Barley (barley (Sukai Golden); Initial pH 2.0, 29 mM): 0.30 g | Length of Acrospires (barley (Sukai Golden); Initial pH 2.2, 18 mM): 0.63 | Amount of Rooting Based on 100 g of Barley (barley (Sukai Golden); Initial pH 2.2, 18 mM): 1.51 g | Length of Acrospires (barley (Sukai Golden); Initial pH 2.4, 7 mM): 0.63 | Amount of Rooting Based on 100 g of Barley (barley (Sukai Golden); Initial pH 2.4, 7 mM): 2.90 g | α-Amylase (Based on Normal Steeping Barley, %) (α-amylase; Initial pH 1.5, 223 mM): 21% | α-Amylase (Based on Normal Steeping Barley, %) (α-amylase; Initial pH 1.6, 176 mM): 25% | α-Amylase (Based on Normal Steeping Barley, %) (α-amylase; Initial pH 1.8, 82 mM): 39% | α-Amylase (Based on Normal Steeping Barley, %) (α-amylase; Initial pH 2.0, 29 mM): 90% | α-Amylase (Based on Normal Steeping Barley, %) (α-amylase; Initial pH 2.2, 18 mM): 90% | α-Amylase (Based on Normal Steeping Barley, %) (α-amylase; Initial pH 2.4, 7 mM): 91% | Endoprotease (Based on Normal Steeping Barley, %) (endoprotease; Initial pH 1.5, 223 mM): 16% | Endoprotease (Based on Normal Steeping Barley, %) (endoprotease; Initial pH 1.6, 176 mM): 20% | Endoprotease (Based on Normal Steeping Barley, %) (endoprotease; Initial pH 1.8, 82 mM): 45% | Endoprotease (Based on Normal Steeping Barley, %) (endoprotease; Initial pH 2.0, 29 mM): 65% | Endoprotease (Based on Normal Steeping Barley, %) (endoprotease; Initial pH 2.2, 18 mM): 68% | Endoprotease (Based on Normal Steeping Barley, %) (endoprotease; Initial pH 2.4, 7 mM): 35% | Acrid Component (Based on Normal Steeping Barley, % by weight) ([1]; Initial pH 1.5, 223 mM): 259 % by weight | Acrid Component (Based on Normal Steeping Barley, % by weight) ([1]; Initial pH 1.6, 176 mM): 104 % by weight | Acrid Component (Based on Normal Steeping Barley, % by weight) ([1]; Initial pH 1.8, 82 mM): 53 % by weight | Acrid Component (Based on Normal Steeping Barley, % by weight) ([1]; Initial pH 2.0, 29 mM): 80 % by weight | Acrid Component (Based on Normal Steeping Barley, % by weight) ([1]; Initial pH 2.2, 18 mM): 116 % by weight | Acrid Component (Based on Normal Steeping Barley, % by weight) ([1]; Initial pH 2.4, 7 mM): 120 % by weight | β-Amylase (Based on Normal Steeping Barley, %) (β-amylase; Initial pH 1.5, 223 mM): 187% | β-Amylase (Based on Normal Steeping Barley, %) (β-amylase; Initial pH 1.6, 176 mM): 128% | β-Amylase (Based on Normal Steeping Barley, %) (β-amylase; Initial pH 1.8, 82 mM): 557% | β-Amylase (Based on Normal Steeping Barley, %) (β-amylase; Initial pH 2.0, 29 mM): 400% | β-Amylase (Based on Normal Steeping Barley, %) (β-amylase; Initial pH 2.2, 18 mM): 370% | β-Amylase (Based on Normal Steeping Barley, %) (β-amylase; Initial pH 2.4, 7 mM): 221%
